Test results published in patent US9670197B2, “Small molecule modifiers of the Hec1-Nek2 interaction in G2/M” (The Regents of the University of California, priority 2013, dated 2017).

Tests used:
Type in all cases: cell-based
HS27 = test: Growth inhibition, normal skin fibroblast HS27; settings: for IC50: Homo sapiens, Table 2, Fibroblast, HS27, read-out: cell growth suppression; for growth inhibitory effect on non-tumorgenic fibroblast cells: data not shown
Description: (§1) Cell lines and establishment of stable cell lines. Human breast cancer cell lines MDA-MB-231 and MDA-MB-468, osteosarcoma line U20S, cervical adenocarcinoma line HeLa, and normal skin fibroblast Hs27 were maintained in DMEM medium (Invitrogen, Grand Island, N.Y.) supplemented 10% fetal bovine serum (FBS) and 1% penicillin-streptomycin. The leukemia cell line K562 and glioblastoma cell line T98G were grown in RPMI 1640 supplemented 10% FBS and 1% penicillin-streptomycin. Normal mammary gland epithelial cell line MCF10A was cultured in DMEM/F12 (50:50) plus 5% horse serum, 0.1 μg/mL cholera toxin, 10 μg/mL insulin, 0.5 μg/mL hydrocortisone, and 20 ng/mL epidermal growth factor. To establish MDA-MB-468 cells that stably expressed each individual GFP-Hec1 deletion construct described above, cells were infected with retrovirus expressing GFP-Hec1 WT, GFP-Hec1 W395A and GFP-Hec1 WLK/AAA, and were selected with 2 μg/ml puromycin.

cancer cell lines = test: Cancer cell growth inhibition
Hec1 = molecular target: T1, Hec1 (Homo sapiens, UniProt O14777); test: Hec1 protein level in treated HeLa cells, western blot; settings: 1 μM, time course
T1 construct: expressed in transfected cells; host or cells: HeLa cells (extracts)
T1 sequence (O14777 1-642): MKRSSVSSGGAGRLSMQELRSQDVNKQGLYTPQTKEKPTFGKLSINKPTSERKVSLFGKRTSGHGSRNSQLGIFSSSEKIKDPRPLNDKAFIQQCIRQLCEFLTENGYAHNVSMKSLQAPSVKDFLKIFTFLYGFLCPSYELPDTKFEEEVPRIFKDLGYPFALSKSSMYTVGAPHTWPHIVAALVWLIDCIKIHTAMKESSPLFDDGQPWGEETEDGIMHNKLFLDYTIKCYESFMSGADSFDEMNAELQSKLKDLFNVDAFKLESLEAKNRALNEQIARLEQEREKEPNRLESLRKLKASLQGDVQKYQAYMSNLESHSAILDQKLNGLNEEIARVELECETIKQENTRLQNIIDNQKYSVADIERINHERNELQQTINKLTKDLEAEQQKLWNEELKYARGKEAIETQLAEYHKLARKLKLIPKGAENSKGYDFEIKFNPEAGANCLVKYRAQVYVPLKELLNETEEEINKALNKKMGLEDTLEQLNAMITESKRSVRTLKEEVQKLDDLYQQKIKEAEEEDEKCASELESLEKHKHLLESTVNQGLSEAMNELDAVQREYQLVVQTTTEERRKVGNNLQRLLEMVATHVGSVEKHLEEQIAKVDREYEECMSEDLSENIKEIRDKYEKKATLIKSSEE
Description: (§2) INH-induced Nek2 degradation; INH-inhibition of Hec1 phosphorylation by Nek2. […] To evaluate whether INH treatment affected cell cycle profile or Nek2 mRNA level, we performed FACS and real-time PCR analysis.
(§3) Protein extraction and western blot analysis. The protein extractions and western blot analyses of Examples 4-6 were conducted as follows. Cell extracts were prepared and equal amounts of protein were separated by SDS-PAGE (10% w/v gel) followed by electrophoretic transfer to PVDF membranes (Millipore, Billerica, Mass.). After blocking with 5% w/v powdered non-fat milk, the membrane was incubated with different antibodies for overnight at 4° C. and treated for 1 hr with horseradish peroxidase-conjugated goat anti-mouse IgG and goat anti-rabbit IgG antibodies (GeneTex, Irvine, Calif.). ECL detection of the horseradish peroxidase reaction was performed according to the manufacturer's instructions (Millipore, Billerica, Mass.). Protein signal was measured on a LAS 4000 mini Imaging System (Fujifilm, Valhalla, N.Y.).

Aurora A = Aurora A expression in treated HeLa cells, western blot; settings: dose series
Description: as §2, §3

pS165 Hec1 = test: Phosphorylated Hec1 (pS165 Hec1) level in treated HeLa cells; settings: 1 μM, 4 to 24 hours
Description: as §3
The following antibodies were used in the experiments described in Examples 4-6. Mouse anti-Hec1 clone 9G3, mouse anti-Nek2, mouse anti-myc, mouse anti-PLK1, mouse anti-p84, mouse anti-GAPDH, rabbit anti-Aurora A and rabbit anti-cyclin B1 antibodies (GeneTex, Irvine, Calif.), mouse anti-GFP (Roche, Indianapolis, Ind.), human anti-ACA (Antibodies Inc., Davis, Calif.), mouse anti-alpha-tubulin, rabbit anti-gamma tubulin (Sigma-Aldrich, St. Louis, Mo.), and secondary antibodies conjugated with Alexa dyes (Invitrogen, Grand Island, N.Y.). […]

HeLa = test: Cancer cell growth inhibition, HeLa; settings: Homo sapiens; Table 2, Cervical, HeLa; read-out: cancer cell growth suppression
Description: as §1

MB468 = test: Cancer cell growth inhibition, MB468 (MDA-MB-468); settings: Homo sapiens, Table 2, Breast adenocarcinoma, read-out: cancer cell growth suppression

| SMILES | IC50 (HS27) | growth inhibitory effect on non-tumorgenic fibroblast cells (HS27) | inhibition of cancer cell growth, IC50 (in words) (cancer cell lines) | change in Hec1 protein level (Hec1) | expression of Aurora A (Aurora A) | phosphorylated Hec1 levels (pS165 Hec1) (pS165 Hec1) | IC50 (HeLa) | IC50 (MB468) |
| --- | --- | --- | --- | --- | --- | --- | --- | --- |
| Cc1cc(N2CCCCC2)cc(C)c1-c1csc(NC(=O)c2ccncc2)n1 [INH154, N-(4-(2,6-Dimethyl-4-(piperidin-1-yl)phenyl)thiazol-2-yl)isonicotinamide] | 40 µM | Neither INH41 nor INH154 had significant growth inhibitory effects | sub-micromolar IC50 | little change | not affected | notably reduced in a time-dependent fashion |  |  |
| Cc1cc(C)c(-c2csc(C(=O)c3ccncc3)n2)c(C)c1 [INH41, (4-mesitylthiazol-2-yl)(pyridin-4-yl)methanone] | 62 µM | Neither INH41 nor INH154 had significant growth inhibitory effects | sub-micromolar IC50 | little change | not affected | notably reduced in a time-dependent fashion | 0.67 µM | 0.69 µM |
